Data published in patent US20230381192A1, “METHODS FOR CONTROLLING AND PREDICTING RECOVERY AFTER NMBA ADMINISTRATION” (Cornell University, priority 2020, published 2023).

What was measured:
Rhesus monkeys = test: Spontaneous recovery from NMB (twitch 5% to 95% of baseline) after bolus or infusion in Rhesus monkeys under isoflurane; assay type: in vivo, Rhesus monkey; settings: for 5%-95% Interval: mean ± SD
Experimental: Rhesus monkeys under isoflurane anesthesia were administered a bolus dose of either RP2000 or RP1000 at a dose equal to 1× to 10× the ED95 in Rhesus monkeys of the administered compound (ED95,Rp1000=0.040 mg/kg; ED95,RP2000=0.053 mg/kg). Twitch (0.15 Hz) and TOF (2 Hz×2 seconds) were recorded throughout the 6 -10 hours experiments. Time to spontaneous recovery after bolus administration, characterized by recovery of twitch from 5% to 95% of baseline was measured.
Separately, continuous infusions of 20-180 minutes duration were given (to separate subjects), and after discontinuation of infusion, time to spontaneous recovery of NMB, characterized by recovery of twitch from 5% to 95% of baseline was measured.

[1] = Predicted spontaneous recovery after RP2000 in patients under inhaled anesthesia; assay type: in vivo, human; settings: doses up to 2.5-3× the ED95
Source text: While not wishing to be bound by theory, it is believed that the highly reproducible half-life is due to degradation of RP1000 through cysteine adduction (e.g., by reaction with glutathione). The advantages imparted by the understanding of the pharmacodynamics of RP1000 include, but are not limited to, that the level of recovery of function may be easily predicted in human patients. […] This disclosure therefore reflects this prediction.

Compound: COc1ccc(C[C@@H]2c3cc(OC)c(OC)cc3CC[N@@+]2(C)CCCOC(=O)/C=C/C(=O)OCCC[N+]2(Cc3ccc(OC)c(OC)c3)CCOCC2)cc1.[Cl-].[Cl-] [RP2000, 4-(3-(((E)-4-(3-((1R)-6,7-dimethoxy-1-(4-methoxybenzyl)-2-methyl-1,2,3 4-tetrahydro-2-isoquinolin-2-ium-2-yl)propoxy)-4-oxobut-2-enoyl)oxy)propyl)-4-(3,4-dimethoxybenzyl)morpholin-4-ium]
- ED95 in Rhesus monkeys (Rhesus monkeys; Rhesus monkeys, isoflurane anesthesia): 0.053 mg/kg
- 5%-95% Interval (Rhesus monkeys; after continuous infusion of 20-180 minutes): 6.2 ± 1.4 min
- 5%-95% Interval (Rhesus monkeys; bolus dose 0.10 mg/kg): 6.1 ± 1.6 min
- 5%-95% Interval (Rhesus monkeys; bolus dose 0.20 mg/kg): 6.4 ± 1.9 min
- 5%-95% Interval (Rhesus monkeys; bolus dose 0.50 mg/kg): 6.7 ± 2.4 min
- predictability of spontaneous recovery [1]: highly predictable
